From ChEMBL document CHEMBL5291721, “A preclinical secondary pharmacology resource illuminates target-adverse drug reaction associations of marketed drugs” (Nat Commun, 2023)

Key:
[1] = target: Gamma-aminobutyric acid receptor subunit alpha-1 (Rattus norvegicus, UniProt P62813); assay type: functional
Motilin receptor = Motilin receptor (Homo sapiens, UniProt O43193)
[2] = target: T1, 5-hydroxytryptamine receptor 2C (Homo sapiens, UniProt P28335)
T1 sequence (P28335 whole entry): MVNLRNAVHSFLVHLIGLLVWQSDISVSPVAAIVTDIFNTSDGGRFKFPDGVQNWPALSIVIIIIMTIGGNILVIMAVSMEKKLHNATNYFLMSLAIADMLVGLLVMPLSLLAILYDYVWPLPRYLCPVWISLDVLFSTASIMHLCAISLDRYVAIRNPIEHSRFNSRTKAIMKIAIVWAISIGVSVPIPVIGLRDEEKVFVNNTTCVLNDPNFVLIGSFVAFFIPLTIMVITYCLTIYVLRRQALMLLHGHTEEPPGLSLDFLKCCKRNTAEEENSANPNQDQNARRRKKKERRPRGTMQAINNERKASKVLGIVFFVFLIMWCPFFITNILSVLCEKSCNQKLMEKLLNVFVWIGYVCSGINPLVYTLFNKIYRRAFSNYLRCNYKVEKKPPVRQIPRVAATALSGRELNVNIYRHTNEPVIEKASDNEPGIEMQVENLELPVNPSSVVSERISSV

[3] = target: cGMP-inhibited 3',5'-cyclic phosphodiesterase 3A (Homo sapiens, UniProt Q14432); assay type: functional
[4] = target: T2, Prostaglandin G/H synthase 1 (Rattus norvegicus, UniProt Q63921); assay type: functional
T2 sequence (Q63921 whole entry): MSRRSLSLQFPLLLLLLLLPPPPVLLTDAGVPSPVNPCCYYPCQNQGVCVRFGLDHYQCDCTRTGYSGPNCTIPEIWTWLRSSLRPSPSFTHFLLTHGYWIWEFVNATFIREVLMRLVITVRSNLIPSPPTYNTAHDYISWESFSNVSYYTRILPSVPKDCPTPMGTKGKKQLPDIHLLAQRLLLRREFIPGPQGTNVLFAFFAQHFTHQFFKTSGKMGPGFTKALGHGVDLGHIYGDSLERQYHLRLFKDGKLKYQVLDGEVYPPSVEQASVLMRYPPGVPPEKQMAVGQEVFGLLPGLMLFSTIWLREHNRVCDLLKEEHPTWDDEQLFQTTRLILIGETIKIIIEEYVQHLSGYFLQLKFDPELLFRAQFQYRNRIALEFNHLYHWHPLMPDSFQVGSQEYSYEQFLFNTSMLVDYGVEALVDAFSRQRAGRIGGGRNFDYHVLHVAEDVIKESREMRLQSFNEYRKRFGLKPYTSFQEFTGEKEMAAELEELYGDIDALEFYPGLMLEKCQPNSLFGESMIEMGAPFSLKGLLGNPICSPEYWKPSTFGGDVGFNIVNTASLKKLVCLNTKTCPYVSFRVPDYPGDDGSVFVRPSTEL

[5] = target: T3, Cholecystokinin receptor type A (Homo sapiens, UniProt P32238)
T3 sequence (P32238 whole entry): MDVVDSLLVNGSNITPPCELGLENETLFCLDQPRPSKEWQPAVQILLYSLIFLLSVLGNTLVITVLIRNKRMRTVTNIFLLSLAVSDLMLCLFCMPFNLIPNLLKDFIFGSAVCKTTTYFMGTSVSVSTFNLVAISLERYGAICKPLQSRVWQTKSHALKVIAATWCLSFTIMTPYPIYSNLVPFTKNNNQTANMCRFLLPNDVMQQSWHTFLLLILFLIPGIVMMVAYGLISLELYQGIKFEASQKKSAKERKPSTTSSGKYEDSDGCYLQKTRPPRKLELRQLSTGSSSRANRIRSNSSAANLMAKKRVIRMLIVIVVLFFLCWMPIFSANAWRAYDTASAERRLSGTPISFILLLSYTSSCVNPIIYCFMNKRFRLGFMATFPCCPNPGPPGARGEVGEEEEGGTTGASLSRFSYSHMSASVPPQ

[6] = target: T4, Alpha-2A adrenergic receptor (Homo sapiens, UniProt P08913); assay type: functional, cell-based
T4 sequence (P08913 whole entry): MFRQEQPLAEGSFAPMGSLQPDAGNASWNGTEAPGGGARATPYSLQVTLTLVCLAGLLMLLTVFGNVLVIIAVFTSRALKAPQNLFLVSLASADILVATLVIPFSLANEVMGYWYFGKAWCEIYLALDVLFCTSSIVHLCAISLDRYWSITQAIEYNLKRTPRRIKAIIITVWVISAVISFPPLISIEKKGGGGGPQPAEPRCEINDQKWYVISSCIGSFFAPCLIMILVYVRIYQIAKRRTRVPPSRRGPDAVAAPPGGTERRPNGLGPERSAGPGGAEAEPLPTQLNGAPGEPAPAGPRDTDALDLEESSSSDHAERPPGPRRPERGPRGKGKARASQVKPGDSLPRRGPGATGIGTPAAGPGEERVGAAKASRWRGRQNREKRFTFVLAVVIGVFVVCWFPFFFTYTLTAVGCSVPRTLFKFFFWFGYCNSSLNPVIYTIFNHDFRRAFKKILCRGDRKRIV

[7] = target: T5, Amine oxidase [flavin-containing] A (Homo sapiens, UniProt P21397); assay type: functional
T5 sequence (P21397 whole entry): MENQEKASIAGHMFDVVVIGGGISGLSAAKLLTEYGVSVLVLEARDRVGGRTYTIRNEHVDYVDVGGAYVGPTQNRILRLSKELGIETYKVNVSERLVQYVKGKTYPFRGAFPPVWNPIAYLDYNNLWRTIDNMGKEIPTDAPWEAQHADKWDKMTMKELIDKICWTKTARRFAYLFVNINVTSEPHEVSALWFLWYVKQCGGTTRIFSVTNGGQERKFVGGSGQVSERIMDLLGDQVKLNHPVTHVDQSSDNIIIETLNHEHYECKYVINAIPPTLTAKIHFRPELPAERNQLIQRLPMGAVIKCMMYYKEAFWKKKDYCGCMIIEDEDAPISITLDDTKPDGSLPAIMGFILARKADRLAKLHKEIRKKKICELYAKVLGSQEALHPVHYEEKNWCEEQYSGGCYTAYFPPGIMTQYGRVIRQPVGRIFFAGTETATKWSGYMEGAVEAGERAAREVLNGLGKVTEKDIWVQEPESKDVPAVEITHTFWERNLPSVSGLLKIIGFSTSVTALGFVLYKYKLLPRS

[8] = target: Neuronal acetylcholine receptor subunit alpha-4 (Homo sapiens, UniProt P43681)
[9] = target: Delta-type opioid receptor (Homo sapiens, UniProt P41143)
[10] = target: Sodium-dependent noradrenaline transporter (Homo sapiens, UniProt P23975)
[11] = target: 5-hydroxytryptamine receptor 2B (Homo sapiens, UniProt P41595); assay type: functional, cell-based
Further: assay procedure not described here.

Sequence of Sodium-dependent noradrenaline transporter (P23975 whole entry): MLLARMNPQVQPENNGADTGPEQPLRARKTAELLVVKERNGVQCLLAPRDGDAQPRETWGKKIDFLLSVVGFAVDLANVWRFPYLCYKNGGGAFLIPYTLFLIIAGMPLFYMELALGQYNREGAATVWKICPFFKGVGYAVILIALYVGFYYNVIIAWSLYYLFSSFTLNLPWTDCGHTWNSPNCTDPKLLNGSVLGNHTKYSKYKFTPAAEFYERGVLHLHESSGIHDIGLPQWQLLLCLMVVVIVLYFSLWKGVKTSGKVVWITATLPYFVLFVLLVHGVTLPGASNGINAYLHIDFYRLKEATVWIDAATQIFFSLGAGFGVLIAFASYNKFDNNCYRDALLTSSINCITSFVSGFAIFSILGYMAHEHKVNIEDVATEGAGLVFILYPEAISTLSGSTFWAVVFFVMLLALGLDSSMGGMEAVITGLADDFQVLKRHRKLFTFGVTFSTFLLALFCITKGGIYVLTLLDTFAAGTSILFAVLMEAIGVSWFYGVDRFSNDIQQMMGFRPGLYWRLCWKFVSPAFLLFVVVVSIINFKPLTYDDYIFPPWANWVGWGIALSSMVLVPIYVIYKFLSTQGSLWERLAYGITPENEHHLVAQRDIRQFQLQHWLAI
Sequence of Motilin receptor (O43193 whole entry): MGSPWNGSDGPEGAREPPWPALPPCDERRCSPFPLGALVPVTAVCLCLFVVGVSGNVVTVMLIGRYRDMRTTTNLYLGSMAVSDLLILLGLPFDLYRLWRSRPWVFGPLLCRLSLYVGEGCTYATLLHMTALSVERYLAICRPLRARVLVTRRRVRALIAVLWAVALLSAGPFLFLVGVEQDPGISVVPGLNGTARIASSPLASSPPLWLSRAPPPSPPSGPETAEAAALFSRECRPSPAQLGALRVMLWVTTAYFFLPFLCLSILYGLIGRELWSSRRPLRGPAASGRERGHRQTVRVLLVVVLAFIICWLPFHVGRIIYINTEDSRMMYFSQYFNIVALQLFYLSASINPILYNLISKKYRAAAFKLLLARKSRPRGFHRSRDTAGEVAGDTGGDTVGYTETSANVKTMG
Sequence of Neuronal acetylcholine receptor subunit alpha-4 (P43681 whole entry): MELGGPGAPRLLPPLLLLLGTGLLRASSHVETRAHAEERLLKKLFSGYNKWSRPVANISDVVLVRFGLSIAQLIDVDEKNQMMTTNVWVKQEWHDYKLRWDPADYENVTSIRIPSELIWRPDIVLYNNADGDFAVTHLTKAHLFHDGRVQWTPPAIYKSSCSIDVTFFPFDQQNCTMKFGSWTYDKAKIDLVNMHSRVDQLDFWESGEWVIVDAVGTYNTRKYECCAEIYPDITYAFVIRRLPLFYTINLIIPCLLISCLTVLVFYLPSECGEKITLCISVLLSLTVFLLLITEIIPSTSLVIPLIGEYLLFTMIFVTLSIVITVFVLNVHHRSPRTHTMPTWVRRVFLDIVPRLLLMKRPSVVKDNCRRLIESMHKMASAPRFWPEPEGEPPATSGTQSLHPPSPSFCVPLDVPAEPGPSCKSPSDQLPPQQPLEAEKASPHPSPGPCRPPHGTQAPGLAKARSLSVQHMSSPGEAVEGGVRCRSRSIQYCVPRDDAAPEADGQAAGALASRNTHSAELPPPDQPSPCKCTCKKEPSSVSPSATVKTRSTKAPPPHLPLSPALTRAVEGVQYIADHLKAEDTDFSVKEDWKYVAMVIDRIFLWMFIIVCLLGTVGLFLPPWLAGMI
Sequence of 5-hydroxytryptamine receptor 2B (P41595 whole entry): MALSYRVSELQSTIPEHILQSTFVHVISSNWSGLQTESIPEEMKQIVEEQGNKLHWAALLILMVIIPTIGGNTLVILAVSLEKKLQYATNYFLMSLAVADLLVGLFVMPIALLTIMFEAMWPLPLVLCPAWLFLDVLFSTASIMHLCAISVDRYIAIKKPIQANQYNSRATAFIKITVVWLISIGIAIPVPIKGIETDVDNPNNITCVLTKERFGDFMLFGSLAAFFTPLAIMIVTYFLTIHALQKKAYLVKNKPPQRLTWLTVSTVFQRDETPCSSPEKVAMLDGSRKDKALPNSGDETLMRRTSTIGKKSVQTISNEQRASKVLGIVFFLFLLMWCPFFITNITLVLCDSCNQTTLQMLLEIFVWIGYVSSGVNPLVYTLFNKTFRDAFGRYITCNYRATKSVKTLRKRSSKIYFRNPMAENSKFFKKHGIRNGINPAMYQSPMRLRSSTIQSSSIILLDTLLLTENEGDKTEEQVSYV
Sequence of Gamma-aminobutyric acid receptor subunit alpha-1 (P62813 whole entry): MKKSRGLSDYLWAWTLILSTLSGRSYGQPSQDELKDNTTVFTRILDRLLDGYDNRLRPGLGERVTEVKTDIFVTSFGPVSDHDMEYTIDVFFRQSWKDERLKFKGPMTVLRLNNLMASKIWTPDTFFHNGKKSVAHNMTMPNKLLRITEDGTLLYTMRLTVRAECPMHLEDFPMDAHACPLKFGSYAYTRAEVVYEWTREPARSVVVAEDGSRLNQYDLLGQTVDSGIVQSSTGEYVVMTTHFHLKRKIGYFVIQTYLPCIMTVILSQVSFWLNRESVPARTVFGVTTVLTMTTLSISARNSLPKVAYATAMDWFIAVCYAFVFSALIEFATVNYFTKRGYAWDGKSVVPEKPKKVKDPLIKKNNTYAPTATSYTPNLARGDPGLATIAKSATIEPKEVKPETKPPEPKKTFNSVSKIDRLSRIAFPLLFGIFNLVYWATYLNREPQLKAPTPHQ
Sequence of cGMP-inhibited 3',5'-cyclic phosphodiesterase 3A (Q14432 whole entry): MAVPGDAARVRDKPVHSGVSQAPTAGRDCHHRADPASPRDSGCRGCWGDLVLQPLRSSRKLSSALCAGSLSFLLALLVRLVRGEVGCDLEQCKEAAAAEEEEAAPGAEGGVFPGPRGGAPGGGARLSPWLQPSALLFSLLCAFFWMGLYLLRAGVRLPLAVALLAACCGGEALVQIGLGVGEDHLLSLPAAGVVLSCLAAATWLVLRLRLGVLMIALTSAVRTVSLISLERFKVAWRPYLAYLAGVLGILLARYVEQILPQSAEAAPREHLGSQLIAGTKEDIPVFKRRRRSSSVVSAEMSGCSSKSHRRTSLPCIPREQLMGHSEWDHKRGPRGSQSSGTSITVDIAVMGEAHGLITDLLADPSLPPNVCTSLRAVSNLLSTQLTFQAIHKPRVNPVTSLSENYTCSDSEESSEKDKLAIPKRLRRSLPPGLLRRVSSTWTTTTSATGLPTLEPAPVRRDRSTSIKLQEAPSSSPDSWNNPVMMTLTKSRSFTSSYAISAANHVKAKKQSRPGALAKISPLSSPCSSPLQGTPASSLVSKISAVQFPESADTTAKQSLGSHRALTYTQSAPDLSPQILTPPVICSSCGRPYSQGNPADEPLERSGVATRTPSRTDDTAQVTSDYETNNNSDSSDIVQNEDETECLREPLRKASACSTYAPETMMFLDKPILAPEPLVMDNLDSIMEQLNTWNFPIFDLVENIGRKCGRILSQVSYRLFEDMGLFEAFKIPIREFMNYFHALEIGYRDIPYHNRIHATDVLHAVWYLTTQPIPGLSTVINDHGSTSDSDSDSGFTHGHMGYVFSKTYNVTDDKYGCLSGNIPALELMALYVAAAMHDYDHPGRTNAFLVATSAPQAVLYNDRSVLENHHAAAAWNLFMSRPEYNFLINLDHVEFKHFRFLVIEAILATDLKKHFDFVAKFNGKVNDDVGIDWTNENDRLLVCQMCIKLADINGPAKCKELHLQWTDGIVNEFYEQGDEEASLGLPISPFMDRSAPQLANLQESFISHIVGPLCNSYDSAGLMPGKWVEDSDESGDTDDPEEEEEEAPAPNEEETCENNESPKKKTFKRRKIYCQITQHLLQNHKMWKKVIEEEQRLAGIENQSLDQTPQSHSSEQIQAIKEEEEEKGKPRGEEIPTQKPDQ
Sequence of Delta-type opioid receptor (P41143 whole entry): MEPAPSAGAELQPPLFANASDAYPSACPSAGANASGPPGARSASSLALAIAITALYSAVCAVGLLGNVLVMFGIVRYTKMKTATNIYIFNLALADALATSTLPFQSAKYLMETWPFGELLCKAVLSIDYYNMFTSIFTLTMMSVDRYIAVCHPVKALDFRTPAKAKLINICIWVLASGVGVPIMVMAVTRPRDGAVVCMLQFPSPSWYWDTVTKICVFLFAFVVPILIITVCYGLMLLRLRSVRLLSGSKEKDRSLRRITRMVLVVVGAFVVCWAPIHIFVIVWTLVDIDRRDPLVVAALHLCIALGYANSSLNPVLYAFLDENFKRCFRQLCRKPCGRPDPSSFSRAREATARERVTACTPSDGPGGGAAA

SMILES	AC50 [1] [µM]	AC50 (Motilin receptor) [µM]	AC50 [2] [µM]	AC50 [3] [µM]	AC50 [4] [µM]	AC50 [5] [µM]	AC50 [6] [µM]	AC50 [7] [µM]	AC50 [8] [µM]	AC50 [9] [µM]	AC50 [10] [µM]	AC50 [11] [µM]
CN(C)CCC=C1c2ccccc2CCc2ccccc21 [AMITRIPTYLINE]	> 10	> 30	0.15	> 30	> 30	> 30	> 10	> 10	> 30	> 30	–	–
CCOC(=O)Nc1ccc(NCc2ccc(F)cc2)nc1N [FLUPIRTINE]	> 30	> 30	> 10	> 30	–	> 30	> 30	> 30	> 30	> 30	> 30	> 30
C#CCN(C)Cc1ccccc1 [PARGYLINE]	> 30	–	> 30	> 30	–	–	> 30	–	–	> 30	–	> 30
CN(C)CCCC1(c2ccc(F)cc2)OCc2cc(C#N)ccc21 (configuration not stated) [CITALOPRAM]	> 10	> 10	–	> 30	> 30	> 30	> 10	> 10	–	> 30	–	0.678
O=c1[nH]cc(F)c(=O)[nH]1 [FLUOROURACIL]	–	> 30	–	–	> 30	> 30	–	–	> 30	–	> 30	–
CC(=O)Oc1ccccc1C(=O)O [ASPIRIN]	> 10	> 10	> 30	> 30	–	> 30	> 10	> 30	> 10	> 30	> 30	> 10
CC#CC(=O)N1CCC[C@H]1c1nc(-c2ccc(C(=O)Nc3ccccn3)cc2)c2c(N)nccn12 [ACALABRUTINIB]	–	–	–	–	> 30	–	–	–	–	–	–	–
CS(=O)(=O)Nc1ccc([N+](=O)[O-])cc1Oc1ccccc1 [NIMESULIDE]	> 30	27	26	> 30	> 30	6.2	> 30	> 30	21	> 30	19	–
CC(=O)NC[C@H]1CN(c2ccc(N3CCOCC3)c(F)c2)C(=O)O1 [LINEZOLID]	> 30	–	> 30	> 30	> 30	–	> 30	> 30	> 30	> 30	–	–
O=C1[C@@H]2[C@H]3CC[C@H](C3)[C@@H]2C(=O)N1C[C@@H]1CCCC[C@H]1CN1CCN(c2nsc3ccccc23)CC1 [LURASIDONE]	> 30	> 30	25	> 30	> 30	–	–	> 30	> 10	> 30	> 30	0.071
O=C(Cc1cccs1)N[C@@H]1C(=O)N2C(C(=O)[O-])=C(C[n+]3ccccc3)CS[C@H]12 [CEPHALORIDINE]	> 30	–	> 30	> 30	–	–	> 30	> 30	–	> 30	–	> 30
c1cnc2cc3c(cc2n1)[C@@H]1CNC[C@H]3C1 [VARENICLINE]	> 30	> 30	> 30	> 30	> 30	> 30	> 30	> 30	–	> 30	> 30	> 30
Cc1ccc(C(C)C)c(O)c1 [THYMOL]	–	–	170	–	120	–	–	–	–	–	–	–
CC(C)NCC(O)COc1ccc(CC(N)=O)cc1 (configuration not stated) [ATENOLOL]	–	> 30	> 30	> 30	> 30	> 30	> 30	> 30	> 30	> 30	> 30	–
